Data set [1] in a line: Plasma clearance in CD-1 male mouse at 5 mg/kg, iv measured for 24 hrs by LC-MS/MS analysis. Type of data set: ADME, organism-based. To be noted: CD-1, mouse.
The nature of data set [2]: AUC (0 to infinity) in CD-1 male mouse at 5 mg/kg, iv by LC-MS/MS analysis. Conditions: CD-1, mouse, in vivo. Type of data set: ADME, organism-based.
Data set [3] is described as follows: Half life in CD-1 male mouse at 5 mg/kg, iv measured for 24 hrs by LC-MS/MS analysis. Type of data set: ADME, organism-based. Conditions: CD-1, mouse, in vivo.
The target of data set [4] is Histone deacetylase 3/Nuclear receptor corepressor 2 (HDAC3/NCoR2) (Homo sapiens, UniProt O15379). Description: Inhibition of C-terminal His-tagged human HDAC3 (1 to 428 residues)/N-terminal GST tagged human NCOR2 (395 to 489 residues) expressed in baculovirus-infected Sf9 cells using Boc-Lys-(acetyl)-AMC as substrate preincubated with enzyme for 1 hr followed by substrate addition and measured after 2 hrs by fluorescence analysis.

Data set [5] in a line: Cmax in CD-1 male mouse at 5 mg/kg, iv measured for 24 hrs by LC-MS/MS analysis. Type of data set: ADME, organism-based. To be noted: CD-1, mouse, in vivo.
The target of data set [6] is T1, Histone deacetylase 7 (Homo sapiens, UniProt Q8WUI4).
T1 sequence (Q8WUI4 whole entry): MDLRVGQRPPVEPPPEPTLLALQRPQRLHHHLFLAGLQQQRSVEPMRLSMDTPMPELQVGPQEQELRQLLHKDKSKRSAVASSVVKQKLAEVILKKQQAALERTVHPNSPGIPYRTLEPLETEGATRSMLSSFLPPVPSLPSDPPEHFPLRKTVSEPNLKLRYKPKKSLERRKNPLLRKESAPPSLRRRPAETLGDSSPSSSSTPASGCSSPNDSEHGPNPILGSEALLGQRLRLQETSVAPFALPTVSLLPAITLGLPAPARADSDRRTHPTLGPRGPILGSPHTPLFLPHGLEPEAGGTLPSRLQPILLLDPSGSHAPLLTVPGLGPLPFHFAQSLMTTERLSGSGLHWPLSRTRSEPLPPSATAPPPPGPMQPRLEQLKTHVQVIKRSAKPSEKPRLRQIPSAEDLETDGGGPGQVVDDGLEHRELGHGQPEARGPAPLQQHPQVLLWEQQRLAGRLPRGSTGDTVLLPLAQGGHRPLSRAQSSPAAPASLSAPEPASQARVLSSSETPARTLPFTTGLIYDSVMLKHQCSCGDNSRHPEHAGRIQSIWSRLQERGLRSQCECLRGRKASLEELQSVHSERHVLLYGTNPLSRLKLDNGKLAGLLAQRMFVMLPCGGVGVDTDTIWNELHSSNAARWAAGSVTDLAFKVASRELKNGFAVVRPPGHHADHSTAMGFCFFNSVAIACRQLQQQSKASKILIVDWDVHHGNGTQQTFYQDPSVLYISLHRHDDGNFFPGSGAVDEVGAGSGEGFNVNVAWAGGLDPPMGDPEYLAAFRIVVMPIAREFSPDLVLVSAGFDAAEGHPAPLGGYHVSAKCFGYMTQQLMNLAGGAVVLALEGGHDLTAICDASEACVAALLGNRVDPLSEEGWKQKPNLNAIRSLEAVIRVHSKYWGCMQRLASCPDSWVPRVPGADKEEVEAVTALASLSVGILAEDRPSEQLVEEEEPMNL
Put plainly: Inhibition of N-terminal GST-tagged human HDAC7 (518 to end residues) expressed in baculovirus-infected Sf9 cells using Boc-Lys-(trifluoroacetyl)-AMC as substrate preincubated with enzyme for 1 hr followed by substrate addition and measured after 2 hrs by fluorescence analysis.

Data set [7] has as its target Nicotinamide phosphoribosyltransferase (Homo sapiens, UniProt P43490). Description: Inhibition of N-terminal GST-tagged human recombinant NAMPT (2 to 491 residues) expressed in Escherichia coli expression system incubated for 30 mins by fluorescence based analysis.

Sequence of Histone deacetylase 3/Nuclear receptor corepressor 2 (HDAC3/NCoR2) (O15379 whole entry, the tested form may be a part): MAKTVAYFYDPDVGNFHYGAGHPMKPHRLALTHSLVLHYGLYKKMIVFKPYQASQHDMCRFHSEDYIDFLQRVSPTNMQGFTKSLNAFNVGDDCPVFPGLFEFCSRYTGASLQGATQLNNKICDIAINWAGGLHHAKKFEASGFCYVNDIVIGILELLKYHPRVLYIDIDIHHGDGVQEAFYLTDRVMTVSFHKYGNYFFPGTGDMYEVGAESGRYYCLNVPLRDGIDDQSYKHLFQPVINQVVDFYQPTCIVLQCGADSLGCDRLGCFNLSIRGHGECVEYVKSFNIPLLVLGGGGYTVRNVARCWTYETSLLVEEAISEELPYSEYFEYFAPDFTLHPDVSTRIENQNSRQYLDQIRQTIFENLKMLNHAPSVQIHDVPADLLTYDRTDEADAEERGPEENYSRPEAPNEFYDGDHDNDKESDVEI
Sequence of Histone deacetylase 3/Nuclear receptor corepressor 2 (HDAC3/NCoR2) (Q9Y618 whole entry, further chain, the tested form may be a part): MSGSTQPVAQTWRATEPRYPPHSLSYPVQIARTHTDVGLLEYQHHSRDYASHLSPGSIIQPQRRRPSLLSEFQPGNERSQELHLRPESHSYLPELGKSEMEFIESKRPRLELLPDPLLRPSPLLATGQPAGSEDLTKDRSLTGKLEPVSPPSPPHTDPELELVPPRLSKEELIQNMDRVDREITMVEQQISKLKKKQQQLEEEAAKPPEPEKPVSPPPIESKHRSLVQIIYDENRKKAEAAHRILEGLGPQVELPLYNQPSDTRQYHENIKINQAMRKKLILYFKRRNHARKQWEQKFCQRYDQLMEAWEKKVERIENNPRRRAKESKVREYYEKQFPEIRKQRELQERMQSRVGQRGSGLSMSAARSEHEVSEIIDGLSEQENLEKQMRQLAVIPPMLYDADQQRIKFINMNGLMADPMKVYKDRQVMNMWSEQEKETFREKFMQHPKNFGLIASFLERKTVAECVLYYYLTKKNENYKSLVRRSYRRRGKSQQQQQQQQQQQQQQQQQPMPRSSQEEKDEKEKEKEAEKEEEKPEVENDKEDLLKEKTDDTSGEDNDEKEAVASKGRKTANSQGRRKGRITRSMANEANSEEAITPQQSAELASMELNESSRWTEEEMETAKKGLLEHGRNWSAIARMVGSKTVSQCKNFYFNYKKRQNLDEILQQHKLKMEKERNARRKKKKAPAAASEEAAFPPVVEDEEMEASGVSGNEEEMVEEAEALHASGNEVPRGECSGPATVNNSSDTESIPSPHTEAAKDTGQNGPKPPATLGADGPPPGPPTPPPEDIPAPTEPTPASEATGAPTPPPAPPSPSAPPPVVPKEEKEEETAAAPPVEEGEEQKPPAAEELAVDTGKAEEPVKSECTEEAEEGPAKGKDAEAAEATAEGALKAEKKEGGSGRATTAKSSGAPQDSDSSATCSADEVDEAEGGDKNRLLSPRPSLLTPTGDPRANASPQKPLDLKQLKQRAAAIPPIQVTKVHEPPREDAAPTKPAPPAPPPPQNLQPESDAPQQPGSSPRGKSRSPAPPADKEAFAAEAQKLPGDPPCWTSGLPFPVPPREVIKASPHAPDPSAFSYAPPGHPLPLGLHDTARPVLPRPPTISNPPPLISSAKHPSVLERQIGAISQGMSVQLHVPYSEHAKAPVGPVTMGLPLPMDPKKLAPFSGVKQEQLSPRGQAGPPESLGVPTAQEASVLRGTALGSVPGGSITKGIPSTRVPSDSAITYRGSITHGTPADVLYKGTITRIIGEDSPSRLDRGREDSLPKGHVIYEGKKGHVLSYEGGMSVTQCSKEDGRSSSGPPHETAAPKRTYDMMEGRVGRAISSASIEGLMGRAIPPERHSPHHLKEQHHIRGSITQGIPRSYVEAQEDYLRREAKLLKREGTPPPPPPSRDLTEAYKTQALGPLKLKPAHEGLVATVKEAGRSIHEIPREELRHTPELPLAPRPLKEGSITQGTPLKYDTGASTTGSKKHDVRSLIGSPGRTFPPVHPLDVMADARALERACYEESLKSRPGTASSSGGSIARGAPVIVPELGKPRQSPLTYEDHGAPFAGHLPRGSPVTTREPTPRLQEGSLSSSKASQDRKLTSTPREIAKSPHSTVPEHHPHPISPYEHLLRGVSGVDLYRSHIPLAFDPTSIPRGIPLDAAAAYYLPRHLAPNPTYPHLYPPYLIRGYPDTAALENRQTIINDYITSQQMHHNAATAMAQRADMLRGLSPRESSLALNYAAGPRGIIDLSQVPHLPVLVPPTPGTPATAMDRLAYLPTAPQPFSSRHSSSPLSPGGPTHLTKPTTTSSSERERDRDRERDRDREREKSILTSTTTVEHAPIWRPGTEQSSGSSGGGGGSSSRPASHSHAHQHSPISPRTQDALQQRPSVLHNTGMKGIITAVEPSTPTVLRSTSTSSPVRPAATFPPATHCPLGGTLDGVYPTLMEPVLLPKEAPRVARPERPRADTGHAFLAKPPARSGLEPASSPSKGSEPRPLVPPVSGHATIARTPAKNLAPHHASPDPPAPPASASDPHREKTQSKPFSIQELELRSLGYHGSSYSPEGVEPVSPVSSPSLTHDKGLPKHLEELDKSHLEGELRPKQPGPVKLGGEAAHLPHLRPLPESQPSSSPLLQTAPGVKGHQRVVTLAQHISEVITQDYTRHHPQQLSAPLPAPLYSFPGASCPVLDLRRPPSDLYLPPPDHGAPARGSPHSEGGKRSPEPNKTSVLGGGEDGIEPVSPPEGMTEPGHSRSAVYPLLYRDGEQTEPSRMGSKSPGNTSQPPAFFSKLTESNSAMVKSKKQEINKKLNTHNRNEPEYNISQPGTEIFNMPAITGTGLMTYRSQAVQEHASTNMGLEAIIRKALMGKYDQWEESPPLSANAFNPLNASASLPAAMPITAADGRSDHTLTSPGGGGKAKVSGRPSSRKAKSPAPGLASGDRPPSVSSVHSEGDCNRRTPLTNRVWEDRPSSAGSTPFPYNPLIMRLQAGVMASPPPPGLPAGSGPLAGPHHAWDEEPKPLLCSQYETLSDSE
Sequence of Nicotinamide phosphoribosyltransferase (P43490 whole entry, the tested form may be a part): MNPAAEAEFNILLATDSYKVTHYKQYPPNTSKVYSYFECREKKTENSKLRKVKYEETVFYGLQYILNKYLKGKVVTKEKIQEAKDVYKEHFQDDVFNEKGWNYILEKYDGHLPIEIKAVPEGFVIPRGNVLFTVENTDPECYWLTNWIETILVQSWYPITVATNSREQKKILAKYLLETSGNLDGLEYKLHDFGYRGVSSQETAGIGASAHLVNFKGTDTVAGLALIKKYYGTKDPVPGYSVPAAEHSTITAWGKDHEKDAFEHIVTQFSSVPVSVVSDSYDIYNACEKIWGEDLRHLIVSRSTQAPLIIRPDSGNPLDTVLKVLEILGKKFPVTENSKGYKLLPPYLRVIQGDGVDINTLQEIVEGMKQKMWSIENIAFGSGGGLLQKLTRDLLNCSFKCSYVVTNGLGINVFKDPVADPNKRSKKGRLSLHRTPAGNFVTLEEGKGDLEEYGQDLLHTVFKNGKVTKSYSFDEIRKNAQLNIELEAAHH

As a reminder, the clearance is a measure of how efficiently the substance is removed, as volume per time. Read a high clearance as efficient removal. The AUC(0-inf) is total exposure, with the tail of the curve extrapolated. The low end stands for less exposure, the high end for more exposure. What is called half-life is how long it takes for the measured level to halve. Low values mean rapid decline, high ones slow decline. For orientation: IC50 means the point on the concentration scale where inhibition reaches its midpoint. The term Cmax denotes the maximum level reached in the sampled fluid or tissue. In the case of `CCCNNC(=O)c1ccc(CNC(=O)c2cc3cnccc3[nH]2)cc1`, the clearance in data set [1] came to 25.1 mL/min/kg. For the same molecule, the AUC(0-inf) in data set [2] came out at 3360 ng·h/mL. The same molecule showed a half-life in data set [3] of 551 min. The IC50 in data set [4] is 0.72 nM; in data set [6], greater than 10 µM. Further, the highest level in data set [5] (Cmax) was 11700 ng/mL.
In the case of `CCCNNC(=O)c1ccc(CNC(=O)/C=C/c2cccnc2)cc1`, the results for the IC50 in data set [7] and in data set [6] were 1660 nM and greater than 10 µM, respectively.

Values taken from ChEMBL document CHEMBL5505964, “HDAC/NAMPT dual inhibitors overcome initial drug-resistance in p53-null leukemia cells” (Eur J Med Chem, 2024).
